Assay results reported in US11446298B2, “Pyrimidine derivatives” (Idorsia Pharmaceuticals Ltd, priority 2017, dated 2022).

Columns and labels:
Format in all cases: cell-based
EP4 = target: T1, EP4 (Homo sapiens, UniProt P35408); experiment: hEP4 cAMP Assay (BT549 breast cancer cells, HTRF cAMP, PGE2 6 nM); settings: antagonistic activity, PGE2 6 nM (EC80)
T1 construct: BT549 breast cancer cells, express high endogenous EP4 levels and very low EP2 levels; host or cells: BT549 breast cancer cells
Outline: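 Antagonism is measured as inhibition of PGE2 (6 nM final, EC80) cAMP accumulation in EP4-expressing BT549 breast cancer cells, after a 45 min room-temperature compound pre-incubation and 30 min agonist step, with 2 mM IBMX present. HTRF ratio gives cAMP relative to DMSO; IC50 fitted, means over repeat runs.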

PTGER4 (EP4) = target: T2, PTGER4 (EP4) (Homo sapiens, UniProt P35408); experiment: hEP4 b-Arrestin Assay (PathHunter HEK 293 PTGER4 b-arrestin cells, PGE2 20 nM); settings: antagonistic activity, beta-arrestin assay, HEK 293 PTGER4 cells, PGE2 20 nM (EC80); read-out: hEP4 b-arr IC50
T2 construct: host or cells: HEK 293 (PathHunter, stably transfected)
Procedure: The antagonistic activities of the compounds of formula (I) on the EP2 and EP4 receptors are also determined in accordance with the following experimental method.
The assay is using the PathHunter™ HEK 293 PTGER2 and PTGER4 b-arrestin cell lines from DiscoverX. The system is based on the Enzyme Fragment Complementation Technology. Two complementing fragments of the b-galactosidase enzyme are expressed within stably transfected cells. The larger portion of b-gal, termed EA for Enzyme Acceptor, is fused to the C-terminus of b-arrestin 2. The smaller fragment, termed ProLink™ tag, is fused to PTGER2 (EP2) or PTRGER4 (EP4) at the C-terminus. Upon activation, b-arrestin is recruited which forces the interaction of ProLink and EA, allowing complementation of the two fragments of b-gal and the formation of a functional enzyme which is capable of hydrolysing the substrate and generating a chemiluminescent signal.
The HEK 293 PTGER4 b-arrestin cells (DiscoverX 93-030-4C1) are detached from culture dishes with a cell dissociation buffer (Invitrogen, 13151-014), and collected in growing medium (GM: DMEM+Glutamax-I (Invitrogen 32430)/10% FCS, 1% Penicilin/streptomycin). 5000 cells per well of a 384 well plate (white with white bottom Greiner 781080) are seeded in 20 ul per well of GM. Plate is incubated at 37° C., 5% CO2 for 24 hours.
Stock solutions of test compounds are made at a concentration of 10 mM in DMSO, and serially diluted in DMSO to concentrations required for inhibition dose response curves (tested concentration range 10 μM-2 nM or 1 μM-0.2 nM).
PGE2 (Cayman 14010, stock solution: 100 μM in DMSO) is used as agonist at 20 nM final concentration, corresponding to EC80.
Five microliters of diluted compounds are transferred into the assay plate. Plate is pre-incubated 15 minutes at 37° C. Then five microliters of PGE2 (final conc. 20 nM) are transferred into the assay plate. Plate is incubated 120 minutes at 37° C.
PathHunter Glo Detection Kit components are thawed and mix according to manufacturer's instructions: 1 part Galacton Star Substrate with 5 parts Emerald II™ Solution, and 19 parts of PathHunter Cell Assay Buffer, respectively. Twelve μl of reagent are transferred to the assay plate and incubate for 1 hour at room temperature in the dark. Luminescence counts are read on a BMG Fluostar Optima reader according to manufacturer's instructions.
For each compound concentration calculate of the percentage of activity compared to DMSO control value as average ±STDEV. (each concentration is measured in duplicate)
IC50 values and curves are generated with XLfit software (IDBS) using Dose-Response One Site model 203. When compounds were measured multiple times, mean values are given.

EP2 = target: T3, EP2 (Homo sapiens, UniProt P43116); experiment: hEP2 cAMP Assay (SF295 glioblastoma cells, HTRF cAMP, PGE2 75 nM); settings: antagonistic activity, PGE2 75 nM (EC80)
T3 construct: SF295 glioblastoma cells express high endogenous EP2 and no EP4; host or cells: SF295 glioblastoma cells
Outline: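 IC50 values derive from duplicate-point curves of percent cAMP relative to DMSO, read by HTRF (665/620 nm) against a cAMP calibrator. Compounds (30 μM to 0.01 nM ranges) were given 45 min at room temperature before 30 min with 75 nM PGE2, in EP2-only SF295 cells with 2 mM IBMX.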

PTGER2 (EP2) = target: T4, PTGER2 (EP2) (Homo sapiens, UniProt P43116); experiment: hEP2 b-Arrestin Assay (PathHunter HEK 293 PTGER2 b-arrestin cells, PGE2 5 μM); settings: antagonistic activity, beta-arrestin assay, HEK 293 PTGER2 cells, PGE2 5 μM (EC80); read-out: hEP2 b-arr IC50
T4 construct: host or cells: HEK 293 (PathHunter, stably transfected)
Outline: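 PathHunter enzyme-fragment complementation in HEK 293 cells: compounds (10 μM-2 nM or 1 μM-0.2 nM) pre-incubated 15 min at 37 °C, then 5 μM PGE2 (EC80) for 120 min at 37 °C. Chemiluminescence read after 1 h detection; IC50 from duplicate dose-response fits, means of repeats.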

T1 sequence (P35408 whole entry): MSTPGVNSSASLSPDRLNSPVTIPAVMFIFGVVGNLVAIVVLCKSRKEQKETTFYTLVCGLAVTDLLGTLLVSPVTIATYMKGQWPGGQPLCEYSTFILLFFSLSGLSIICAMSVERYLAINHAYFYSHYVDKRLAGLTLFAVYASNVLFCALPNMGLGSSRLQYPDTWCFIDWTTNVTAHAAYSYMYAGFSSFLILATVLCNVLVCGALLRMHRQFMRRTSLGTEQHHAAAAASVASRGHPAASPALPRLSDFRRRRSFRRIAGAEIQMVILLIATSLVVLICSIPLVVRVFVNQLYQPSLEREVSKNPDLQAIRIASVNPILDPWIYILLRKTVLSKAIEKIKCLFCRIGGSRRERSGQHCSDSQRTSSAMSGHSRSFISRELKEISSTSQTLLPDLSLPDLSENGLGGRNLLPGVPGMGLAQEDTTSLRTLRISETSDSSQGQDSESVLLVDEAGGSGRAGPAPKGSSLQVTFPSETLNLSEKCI
T2 sequence (P35408 whole entry): as above
T4 sequence (P43116 whole entry): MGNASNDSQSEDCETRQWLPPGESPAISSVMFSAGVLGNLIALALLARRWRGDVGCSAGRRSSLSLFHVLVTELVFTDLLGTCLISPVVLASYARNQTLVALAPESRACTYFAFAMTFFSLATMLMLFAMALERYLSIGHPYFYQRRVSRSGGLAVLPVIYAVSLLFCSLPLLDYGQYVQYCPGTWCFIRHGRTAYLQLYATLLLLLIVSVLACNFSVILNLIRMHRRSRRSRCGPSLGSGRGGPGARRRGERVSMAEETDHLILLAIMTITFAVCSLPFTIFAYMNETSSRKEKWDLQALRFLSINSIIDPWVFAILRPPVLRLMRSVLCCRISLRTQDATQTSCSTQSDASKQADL
T3 sequence (P43116 whole entry): as above

Compound | IC50 (EP4) [nM] | IC50 (PTGER4 (EP4)) [nM] | IC50 (EP2) [nM] | IC50 (PTGER2 (EP2)) [nM]
CSc1cc(-c2cc(NCCc3c(Br)cc(F)c4ccccc34)ncn2)ccc1C(=O)O [Example 170, 4-{6-[2-(2-Bromo-4-fluoro-naphthalen-1-yl)-ethylamino]-pyrimidin-4-yl}-2-methylsulfanyl-benzoic acid] | – | 407 | – | 474
CSc1cc(-c2cc(NCCc3cc(F)cc4ccccc34)ncn2)ccc1C(=O)O [Example 178, 4-{6-[2-(3-Fluoro-naphthalen-1-yl)-ethylamino]-pyrimidin-4-yl}-2-methylsulfanyl-benzoic acid] | – | 871 | – | 142
CCOc1cc(-c2cc(NCCc3c(OC)ccc4c3ccn4C)ncn2)ccc1CC(=O)O [Example 167, (2-Ethoxy-4-{6-[2-(5-methoxy-1-methyl-1H-indol-4-yl)-ethylamino]-pyrimidin-4-yl}-phenyl)-acetic acid] | – | 758 | – | 69
CCOc1cc(-c2cc(NCCc3cccc4c(F)cccc34)ncn2)ccc1C(=O)O [Example 183, 2-Ethoxy-4-{6-[2-(5-fluoro-naphthalen-1-yl)-ethylamino]-pyrimidin-4-yl}-benzoic acid] | – | 701 | – | 60
CSc1cc(-c2cc(NCCc3ccc(Br)c4ccn(C)c34)ncn2)ccc1C(=O)O [Example 169, 4-{6-[2-(4-Bromo-1-methyl-1H-indol-7-yl)-ethylamino]-pyrimidin-4-yl}-2-methylsulfanyl-benzoic acid] | – | 350 | – | 230
COc1ccc2ncccc2c1CCNc1cc(-c2ccc3c(=O)[nH]n(C)c3c2)ncn1 [Example 117, 6-{6-[2-(6-Methoxy-quinolin-5-yl)-ethylamino]-pyrimidin-4-yl}-1-methyl-1,2-dihydro-indazol-3-one] | 163 | 686 | 564 | –
CCOc1ccc2sccc2c1CCNc1cc(-c2ccc(C(=O)O)c(SC)c2)ncn1 [Example 177, 4-{6-[2-(5-Ethoxy-benzo[b]thiophen-4-yl)-ethylamino]-pyrimidin-4-yl}-2-methylsulfanyl-benzoic acid] | – | 334 | – | 4
CSc1cc(-c2cc(NCCc3c(C)ccc4c3ccn4C)ncn2)ccc1C(=O)O [Example 176, 4-{6-[2-(1,5-Dimethyl-1H-indol-4H)-ethylamino]-pyrimidin-4-yl}-2-methylsulfanyl-benzoic acid] | – | 550 | – | 3
CCOc1cc(-c2cc(NCCc3c(OC)ccc4c3ccn4C)ncn2)ccc1C(=O)O [Example 186, 2-Ethoxy-4-{6-[2-(5-methoxy-1-methyl-1H-indol-4-yl)-ethylamino]-pyrimidin-4-yl}-benzoic acid] | – | 500 | – | 9
Cc1c(C)n(C)c2c(CCNc3cc(-c4ccc(C(=O)O)c(OC5CCC5)c4)ncn3)cccc12 [Example 28, 2-Cyclobutoxy-4-{6-[2-(1,2,3-trimethyl-1H-indol-7-yl)-ethylamino]-pyrimidin-4-yl}-benzoic acid] | 988 | 1400 | 684 | –
CCOc1cc(-c2cc(NCCc3c(OC)ccc4ccccc34)ncn2)sc1CC(=O)O [Example 132, (3-Ethoxy-5-{6-[2-(2-methoxy-naphthalen-1-yl)-ethylamino]-pyrimidin-4-yl}-thiophen-2-yl)-acetic acid] | 381 | – | 49 | 61

The remaining compounds from weak to strong by IC50 (PTGER4 (EP4)), led by results:

IC50 (EP4) [nM] | IC50 (PTGER4 (EP4)) [nM] | IC50 (EP2) [nM] | IC50 (PTGER2 (EP2)) [nM] | Compound
– | 298 | – | 8 | COc1ccc2sccc2c1CCNc1cc(-c2ccc(C(=O)O)c(SC)c2)ncn1 [Example 174, 4-{6-[2-(5-Methoxy-benzo[b]thiophen-4-yl)-ethylamino]-pyrimidin-4-yl}-2-methylsulfanyl-benzoic acid]
– | 216 | – | 51 | CCOc1cc(-c2cc(NCCc3c(OC)ccc4sccc34)ncn2)ccc1CC(=O)O [Example 166, (2-Ethoxy-4-{6-[2-(5-methoxy-benzo[b]thiophen-4-yl)-ethylamino]-pyrimidin-4-yl}-phenyl)-acetic acid]
– | 200 | – | 14 | CCOc1cc(-c2cc(NCCc3c(OC)ccc4sccc34)ncn2)ccc1C(=O)O [Example 185, 2-Ethoxy-4-{6-[2-(5-methoxy-benzo[b]thiophen-4-yl)-ethylamino]-pyrimidin-4-yl}-benzoic acid]
225 | 177 | 765 | – | CCOc1cc(-c2cc(NCCc3ccc(C)c4ccccc34)ncn2)ccc1CC(=O)O [Example 99, (2-Ethoxy-4-{6-[2-(4-methyl-naphthalen-1-yl)-ethylamino]-pyrimidin-4-yl}-phenyl)-acetic acid]
– | 114 | – | 219 | CCOc1cc(-c2cc(NCCc3ccc(Br)c4ccccc34)ncn2)ccc1CC(=O)O [Example 162, (4-{6-[2-(4-Bromo-naphthalen-1-yl)-ethylamino]-pyrimidin-4-yl}-2-ethoxy-phenyl)-acetic acid]
– | 108 | – | 93 | COc1ccc2ccn(C)c2c1CCNc1cc(-c2ccc(C(=O)O)c(SC)c2)ncn1 [Example 168, 4-{6-[2-(6-Methoxy-1-methyl-1H-indol-7-yl)-ethylamino]-pyrimidin-4-yl}-2-methylsulfanyl-benzoic acid]
197 | 107 | 506 | – | COc1ccc2cc(F)cc(CCNc3cc(-c4cc(C(F)(F)F)c(C(=O)O)s4)ncn3)c2n1 [Example 152, 5-{6-[2-(6-Fluoro-2-methoxy-quinolin-8-yl)-ethylamino]-pyrimidin-4-yl}-3-trifluoromethyl-thiophene-2-carboxylic acid]
128 | 91 | 374 | – | CCOc1cc(-c2cc(NCCc3ccc(C(F)F)c4ccccc34)ncn2)ccc1C(=O)O [Example 71, 4-{6-[2-(4-Difluoromethyl-naphthalen-1-yl)-ethylamino]-pyrimidin-4-yl}-2-ethoxy-benzoic acid]
116 | 66 | 259 | – | CCOc1cc(-c2cc(NCCc3ccc(C)c4ccccc34)ncn2)ccc1OCC(=O)O [Example 76, (2-Ethoxy-4-{6-[2-(4-methyl-naphthalen-1-yl)-ethylamino]-pyrimidin-4-yl}-phenoxy)-acetic acid]
102 | 34 | 465 | – | CCOc1cc(-c2cc(NCCc3ccc(C(F)F)c4ccccc34)ncn2)ccc1OCC(=O)O [Example 73, (4-{6-[2-(4-Difluoromethyl-naphthalen-1-yl)-ethylamino]-pyrimidin-4-yl}-2-ethoxy-phenoxy)-acetic acid]
17 | 5 | 305 | – | CCOc1cc(-c2cc(NCCc3c(OC)ccc4c(OC)cccc34)ncn2)sc1C(=O)O [Example 53, 5-{6-[2-(2,5-Dimethoxy-naphthalen-1-yl)-ethylamino]-pyrimidin-4-yl}-3-ethoxy-thiophene-2-carboxylic acid]
